# Like-named read-outs stand apart in the source and are kept apart here. Marks after values point to notes of the source that are not given here.
# Experiments:
# [1] = Solubility measurements (gravimetric analysis of saturated solutions) in water; type: physicochemical
# Protocol: (§1) The mixtures were left in a thermostatic bath at 298.15 K until equilibrium was reached. Aliquots of the saturated solutions were removed and analyzed gravimetrically by taking a known volume of sample, evaporating the solvent and then weighing the solid in a dry atmosphere. The weighing process was repeated until a constant weight was obtained. The analytical determination was carried out in triplicate on the same equilibrium mixture. Solvate formation was tested by storing the compounds over water or DMF in a desiccator containing an atmosphere saturated with the appropriate solvent over a period of at least four days.
# [2] = Conductance measurements in water; type: physicochemical; conditions: water
# [3] = Calorimetric enthalpies of solution in DMF; type: physicochemical; conditions: 298.15 K
# Excerpt: All observed heats were corrected for the heat from breaking the empty ampoules in DMF (Q = −0.0518 J). Since there were no systematic changes in the ΔsH values with changes in the concentration of the solute, the reported standard ΔsH^0 values are the average values of the data reported in Table 5. This table also includes the standard deviations of the data.
# (§2) The reliability of the calorimeter was checked by carrying out the standard reaction based on the protonation of an aqueous solution of tris-(hydroxymethyl)aminomethane (THAM) with an aqueous solution of hydrochloric acid (0.1 mol dm^−3) at 298.15 K (Equation (11)). H2NC(CH2OH)3(aq) + H3O+ (aq) → H3N+C(CH2OH)3(aq) + H2O(aq)(11)
# (§3) The system was then placed in a water bath until thermal equilibrium was attained, after which the ampoule was broken into the solvent and the process was monitored by the chart recorder. The observed heat was corrected for the heat of the breaking of the empty ampoule in the solvent. The standard enthalpy of the solution, ∆sH^0, was found from […].
# [4] = Calorimetric enthalpies of solution in water; type: physicochemical; conditions: 298.15 K; for ΔsH^0, standard enthalpy of solution: average of the ΔsH values
# Excerpt: No measurements could be carried out at higher concentrations since the dissolution rate of this compound in water was relatively slow. […] Since there were no systematic changes in the ΔsH values with changes in the concentration of solute, the standard ΔsH^0 value reported in Table 3 is the average value. In the dissolution of a solute in water or any other solvent, there are two processes involved, as described in Equation (5):ΔsH^0 = ΔclH^0 + ΔsolvH^0(5)
# as §2, §3
# [5] = Interaction of acetylsalicylic acid with β-cyclodextrin in DMF (titration calorimetry); type: binding; conditions: nonionized guest, 298 K
# [6] = Transfer thermodynamic parameters from water to DMF; type: physicochemical; conditions: 298.15 K
# Excerpt: As mentioned earlier, ΔsH^0 is made by the contribution of the crystal lattice enthalpy and the solvation enthalpy. In order to remove the contribution of the crystal lattice process, it is a common practice to calculate the transfer thermodynamic parameters according to the following process: […]
# [7] = water, cited from earlier work
# [8] = Solvate formation test in a solvent-saturated atmosphere; type: physicochemical; conditions: water
# Protocol: as §1
# [9] = water; cited from earlier work
# [10] = Conductance measurements in DMF; type: physicochemical; conditions: 298.15 K
# [11] = Gibbs free energy and entropies of solution in water, corrected for ion-pair formation; type: physicochemical; conditions: 298.15 K
# Excerpt: In Equation (2), concentrations are in mol dm^−3, and γ ± i^2 is the mean molar ionic coefficient calculated by the use of the Debye–Hückel equation, where γHA is the activity coefficient of the un-ionized species. In very dilute solutions, γHA may be considered equal to unity. As far as the standard Gibbs energy of the solution in the standard state of 1 mol dm^−3, ∆sG^0, is concerned, the application of Equation (3) requires knowledge of the ion-pair formation constant in solution. The availability of Kip and solubilities in water allows the calculation the ionic molar concentration, ci, and the molar concentration of ion pairs, cip, as previously shown. The data refer to the standard state (1 mol dm^−3). ΔsG^0= −RTln (ci^2 * γ±i^2)(3)
# In Equation (6), aH^+ and aA^− represent the activities of the species H^+ and A^− in solution respectively. The activity of the solid is unity by convention. The activity, a, on the molar scale (mol dm^−3) is related to the ionic molar concentration, ci, by the mean molar ionic activity coefficient, γ ± i.
# Thus:K^0sp = ci^2 ∗ γ ± i^2 (7)
# The availability of Gibbs energy (Equation (3)) and enthalpy values allows the calculation of the entropy of solution, ΔsS. For this purpose, the following equation was used.
# [12] = set-up: method as in PMID 16509753; conditions: water, 298 K, cited from earlier work
smiles,measurement,setting,value
"CC(=O)Oc1ccccc1C(=O)O [acetylsalicylic acid, reference compound]","Solubility, S",[1],(2.20 ± 0.28) ∗ 10^−2 mol dm^−3
same,"Ka, dissociation constant",[2]; 298.15 K,1.75 × 10^−4
same,"Kip, ion-pair formation constant",[2]; 298.15 K,57 × 10^2
same,"Λ^0m, molar conductance at infinite dilution",[2]; 298.15 K,392 S cm^2 mol^−1
same,Fraction hydrolyzed at the end of the conductance measurements,[2]; estimated from data of Pierre and Jencks [25],5%
same,"ΔsH^0, standard enthalpy of solution",[3]; average of the ΔsH values,1.86 ± 0.048 kcal/mol
same,"ΔsH, enthalpy of solution",[3]; c = 1.10 × 10^−3 mol dm^−3,1.79 kcal/mol
same,"ΔsH, enthalpy of solution",[3]; c = 1.48 × 10^−3 mol dm^−3,1.8 kcal/mol
same,"ΔsH, enthalpy of solution",[3]; c = 5.74 × 10^−4 mol dm^−3,1.96 kcal/mol
same,"ΔsH, enthalpy of solution",[3]; c = 6.42 × 10^−4 mol dm^−3,1.87 kcal/mol
same,"ΔsH, enthalpy of solution",[3]; c = 8.62 × 10^−4 mol dm^−3,1.84 kcal/mol
same,"ΔsH, enthalpy of solution",[3]; c = 9.10 × 10^−4 mol dm^−3,1.87 kcal/mol
same,"ΔsH^0, standard enthalpy of solution",[4]; listed as Acetylsalicylic Acid,ΔsH^0 = 11.1 ± 0.6 kJ mol^−1
same,"ΔsH^0, standard enthalpy of solution",[4]; listed as Acetylsalicylic acid,2.65 kcal/mol
same,"ΔsH, enthalpy of solution",[4]; c = 2.40 × 10^−4 mol dm^−3,2.823 kcal/mol
same,"ΔsH, enthalpy of solution",[4]; c = 3.51 × 10^−4 mol dm^−3,2.5 kcal/mol
same,"ΔsH, enthalpy of solution",[4]; c = 4.66 × 10^−4 mol dm^−3,2.44 kcal/mol
same,"ΔsH, enthalpy of solution",[4]; c = 5.13 × 10^−4 mol dm^−3,2.646 kcal/mol
same,"ΔsH, enthalpy of solution",[4]; c = 5.26 × 10^−4 mol dm^−3,2.686 kcal/mol
same,"ΔsH, enthalpy of solution",[4]; c = 5.99 × 10^−4 mol dm^−3,2.799 kcal/mol
same,log Kass,[5],4.66 ± 0.03 ^b
same,"ΔtH^0, enthalpy of transfer",[6],-0.789 kcal/mol
same,"Solubility (literature, molar scale)",[7]; 299.65 K,2.31 × 10^−2 mol dm^−3
same,Solubility (literature),[7],1.78 × 10^−2 mol/dm^−3
same,Solvate formation,[8],not detected
same,"Apparent enthalpy of solution (literature, van ’t Hoff equation)",[9],5.47 kcal/mol
same,Speciation in solution from conductance,[10],undissociated
same,"ΔsS^0, entropy of solution",[11],−67 J K^−1 mol^−1
same,pKsp,[11]; corrected for ion-pair formation,5.45
same,"ΔsG^0, standard Gibbs energy of solution",[11]; standard state 1 mol dm^−3,7.43 kcal/mol
same,log Kass,"[12]; pH 1.75, nonionized guest, calculated from Kass of ref 15",2.74 ^a
same,log Ks,"[12]; pH 6.00, ionized guest, calculated from Ks of ref 15",1.71 ^a

# Source: PMC9569790, “From Solution Studies of Pharmaceuticals (Aspirin and Related Compounds) to the Thermodynamics of Aspirin-β-Cyclodextrin Interaction in water and N,N-Dimethylformamide” (International Journal of Molecular Sciences, 2022)
